Experimental findings from US10828301B2, “2,4-pyrimidinediamine compounds and their uses” (Rigel Pharmaceuticals, Inc, priority 2002, dated 2020) are described below.

Molecules are shown by their SMILES. Like-named read-outs stand apart in the source and are kept apart here.

The subject of experiment [1] is cultured human mast cells (CHMC). Kind of experiment: CHMC low cell density IgE activation: tryptase and LTC4 assays. The class given is cell-based. Conditions: Homo sapiens, Mast cell, Low Density CHMC, anti-IgE activation. In short, it runs like this: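 Degranulation measured after 30 min anti-IgE challenge at 37° C of CHMC plated at 1000-1500 cells/well following 1 h preincubation. Readouts: LTC4 by ELISA on donor-specific diluted supernatants, and tryptase activity from a 30 min room-temperature substrate reaction.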

The subject of experiment [2] is Jurkat cells. Put plainly: Jurkat toxicity: Cell Titer Glo assay. The class given is cell-based. Conditions: Homo sapiens, 18 hours. On the procedure:
Seed 50 μl cells (1×10^6/ml) into each well containing 50 μl compound. […] Shake plates for 1 minute to mix cells and compound. Incubate plates at 37° C. […] Next day, harvest 50 μl cells from each well, add to 50 μl Cell Titer Glo reagent ([…]). Shake plates for 1 minute. Read on luminometer.
Background: In ATP-based viability assays light output follows the ATP content of the culture.

Experiment [3] concerns cultured human mast cells (CHMC). Put plainly: CHMC low cell density ionomycin activation: tryptase assay. The class given is cell-based. Conditions: Homo sapiens, Mast cell, Low Density CHMC, ionomycin activation, tryptase readout; read-out: CHMC Ionomycin Tryptase.
Experiment [4] deals with bone marrow derived mast cells (BMMC). Kind of experiment: BMMC high cell density IgE activation: degranulation (hexosiminidase, histamine), leukotriene (LTC4) and cytokine (TNFalpha, IL-6) assays. Conditions: Mus musculus, anti-IgE activation. The class given is cell-based.
Experiment [5] is described as follows: Mouse model of allergic asthma (ovalbumin). The class given is in vivo. The source says: Mice are sensitized to ovalbumin (chicken protein) in the presence of an adjuvant (Alum) by the intraperitoneal route on day 0 and day 7. One week later, mice are challenged intranasally with ovalbumin on Days 14, 15 and 16 (more stringent model) or on Day 14 (less stringent model). This sensitization and challenge regimen leads to airway hyperresponsiveness and inflammation in the lungs, which are two dominant characteristics of human allergic asthma. In the mouse model, the in vivo airway responses are measured using a whole body plethysmograph which determines the PENH (enhanced Pause, Buxco Electronics). The PENH is a dimensionless value comprised of the peak inspiratory flow (PIF), peak expiratory flow (PEF), time of inspiration, time of expiration and relaxation time, and is considered a validated parameter of airway responsiveness. Responses to allergen challenge (OVA) are compared with animals challenged with saline only. Twenty-four hours after challenge, mice are exposed to increasing doses of methacholine (muscarinic receptor agonist) which results in smooth muscle contraction. […] In addition, a cellular infiltrate in the airway is observed in ovalbumin challenged mice when compared with the saline challenged mice. This cellular infiltrate is mainly characterized by eosinophils, but a smaller influx of neutrophils and mononuclear cells is also present.
The use of this model for the evaluation of small molecule inhibitors of mast cell degranulation has been validated is several ways. First, using mast cell deficient mice (W/W^v) it has been shown that the ovalbumin-induced responses are dependent upon the presence of mast cells.

In experiment [6] the test system is cultured human mast cells (CHMC). Put plainly: CHMC high cell density IgE activation: degranulation (hexos, tryptase, histamine), leukotriene (LTC4) and cytokine (TNFalpha, IL-13) assays. The class given is cell-based. Conditions: anti-IgE activation. On the procedure:
After sensitizing, cells are counted, pelleted (1000 rpm, 5-10 minutes), and resuspended at 1-2×10^6 cells/ml in MT buffer. Add 100 ul of cell suspension to each well and 100 ul of compound dilutions. The final vehicle concentration is 0.5% DMSO. Incubate at 37° C. (5% CO2) for 1 hour. After 1 hour of compound treatment, stimulate cells with 6× anti-IgE. Mix wells with the cells and allow plates to incubate at 37° C. (5% CO2) for one hour. After 1 hour incubation, pellet cells (10 minutes, 1000 RPM) and collect 200 ul per well of the supernatant, being careful not to disturb pellet. Place the supernatant plate on ice. During the 7-hour step (see next) perform tryptase assay on supernatant that had been diluted 1:500. Resuspend cell pellet in 240 ul of CM media containing 0.5% DMSO and corresponding concentration of compound. Incubate CHMC cells for 7 hours at 37° C. (5% CO2). After incubation, pellet cells (1000 RPM, 10 minutes) and collect 225 ul per well and place in −80° C. until ready to perform ELISAS. ELISAS are performed on appropriately diluted samples (determined empirically for each donor cell population so that the sample measurement falls within the standard curve) following the supplier's instructions.

Experiment [7] has as its system basophils in whole human peripheral blood. Put plainly: Basophil ionomycin activation: histamine release assay. The class given is cell-based. How it is done: Assays for ionomycin-induced basophil cell degranulation were carried out as described for the Basophil IgE or Dustmite Activation Assay (Section 6.4.6, supra), with the exception that following incubation with compound, cells were stimulated with 20 μl of 2 μM ionomycin.

For experiment [8], the system named is IgE-induced degranulation of tissue mast cells. Put plainly: Mouse model of passive cutaneous anaphylaxis (PCA). The class given is in vivo. To be noted: for inhibition of the PCA response: oral route in a PEG-based formulation, data not shown. On the procedure:
This model provides a direct measure of IgE-induced degranulation of tissue mast cells. In this model, IgE primed animals are exposed to an allergen challenge, and the change in permeability of dermal vasculature that results from histamine release from mast cells is measured by change in the amount of dye leakage into surrounding tissue. Inhibition of mediator release by compounds that modulate mast cell degranulation is easily measured by extracting the dye from the tissue.
In the PCA assay mice are passively sensitized by intradermal injection with anti-dinitrophenol (DNP) IgE antibodies (Day −1). At predetermined times animals are treated with the test agent (Day 0). The modulatory effect of the agent on cutaneous mast cell degranulation is measured following intravenous injection of DNP conjugated to human serum albumin (HSA-DNP), together with Evans blue dye. The resulting cross-linking of the IgE receptor and subsequent mast cell degranulation-induced increase in vascular permeability is determined by measuring the amount of dye extravasation into the tissue. Dye is extracted from the tissue by formamide, and the absorbance of this extract is read at 620 nm.

[9] abbreviates: tryptase readout, read-out: CHMC anti-IgE Tryptase.
Where [10] appears, read: IL-6 release, read-out: BMMC anti-IgE IL-6 IC50.
Setting [11] is: LTC4 release, read-out: BMMC anti-IgE LTC4 IC50.
The mark [12] stands for this setting: TNF-alpha release, read-out: BMMC anti-IgE TNF-alpha IC50.
Where [13] appears, read: hexosaminidase release, read-out: BMMC anti-IgE hexos IC50.
Where [14] appears, read: histamine release, read-out: BMMC anti-IgE histamine IC50.
The mark [15] stands for this setting: LTC4, read-out: CHMC high density LTC4.
[16] abbreviates: TNF-alpha, read-out: CHMC high density TNF-alpha.
[17] abbreviates: hexosaminidase release, read-out: CHMC high density hexos.
Setting [18] is: histamine release, read-out: CHMC high density histamine.
Where [19] appears, read: tryptase release, read-out: CHMC high density tryptase.

`Oc1cccc(Nc2nc(Nc3ccc4c(c3)N=CCO4)ncc2F)c1` [Compound R909241, N2-(1,4-Benzoxazin-6-yl)-5-fluoro-N4-(3-hydroxyphenyl)-2,4-pyrimidinediamine]: the IC50 in experiment [1] (setting [9]) was 0.181 µM; in experiment [2], 3.74 µM; in experiment [3] it was > 10 µM; in experiment [4] (setting [10]) it was < 0.22 µM; in experiment [4] (setting [11]), 1.02 µM; in experiment [4] (setting [12]), 0.253 µM. The IC50 in experiment [4] (setting [13]) and in experiment [4] (setting [14]) was < 0.22 µM in each case.

As to `CNC(=O)COc1cccc(Nc2ncc(F)c(Nc3ccc4c(n3)NC(=O)CO4)n2)c1` [Compound R921304, 5-Fluoro-N2-(3-methylaminocarbonylmethyleneoxyphenyl)-N4-[2H-pyrido[3,2-b]-1,4-oxazin-3(4H)-one-6-yl]-2,4-pyrimidinediamine], the “ovalbumin-induced airway hyperresponsiveness to methacholine” value in experiment [5] (intranasal, 10 consecutive days (Day 7 through Day 16), 20 mg/kg) is recorded as “able to inhibit the ovalbumin-induced airway hyperresponsiveness to methacholine”. Also, the “airway responses in a mouse model of allergic asthma” value in experiment [5] (summary) was “efficacious in inhibiting the airway responses”.

Consider `CNC(=O)c1cc2cc(Nc3ncc(F)c(Nc4cccc(O)c4)n3)ccc2o1` [Compound R926493, 5-Fluoro-N4-(3-hydroxyphenyl)-N2-[2-(N-methylamino)carbonylbenzofuran-5-yl]-2,4-pyrimidinediamine], for which the IC50 in experiment [1] (LTC4 readout, read-out: CHMC anti-IgE LTC4) was 0.078 µM; in experiment [1] (setting [9]) it was 0.25 µM; in experiment [2] it was > 4.33 µM; in experiment [3] it was 9.18 µM; in experiment [6] (setting [15]) it was 0.474 µM; in experiment [6] (setting [16]), > 2 µM. In addition, the IC50 in experiment [6] (setting [17]) was found to be 0.889 µM; in experiment [6] (setting [18]) it was 1.32 µM; in experiment [6] (setting [19]), 1.09 µM.

Consider `CNC(=O)COc1cccc(Nc2ncc(F)c(Nc3ccc4c(c3)OCCO4)n2)c1` [Compound R926495, N4-(3,4-Ethylenedioxyphenyl)-5-fluoro-N2-[3-(N-methylamino)carbonylmethyleneoxyphenyl]-2,4-pyrimidinediamine], for which, in experiment [7], the IC50 was > 10 µM. Further, the “inhibition of the PCA response” value in experiment [8] is reported as “able to inhibit the PCA response”.

Consider `CNC(=O)COc1cccc(Nc2ncc(F)c(Nc3cccc(O)c3)n2)c1` [Compound R926508, 5-Fluoro-N4-(3-hydroxyphenyl)-N2-[3-(N-methylamino)carbonylmethyleneoxyphenyl]-2,4-pyrimidinediamine], for which the IC50 in experiment [7] is > 10 µM. Besides, the “inhibition of the PCA response” value in experiment [8] was “able to inhibit the PCA response”.

For `NC12OCCON1C(Nc1ccc3oc(CO)cc3c1)=NC=C2F` (stereo not shown) [Compound R926696, N4-(3,4-Ethylenedioxy)-5-fluoro-N2-[2-(hydroxymethyl)benzofuran-5-yl]-2,4-pyrimidinediamine], the IC50 in experiment [1] (setting [9]) is 0.309 µM; in experiment [2], > 5 µM; in experiment [3] it was > 10 µM; in experiment [6] (IL-13, read-out: CHMC high density IL-13) it was 1.77 µM; in experiment [6] (setting [15]) it was < 1.1 µM; in experiment [6] (setting [16]), < 1.1 µM. Moreover, the IC50 in experiment [6] (setting [17]), in experiment [6] (setting [18]) and in experiment [6] (setting [19]) was < 1.1 µM in each case.

Turning to `CNC(=O)COc1cccc(Nc2ncc(F)c(Nc3ccc4cc[nH]c4c3)n2)c1` [Compound R926745, 5-Fluoro-N4-[(1H)-indol-6-yl]-N2-[3-(N-methylamino)carbonylmethyleneoxyphenyl]-2,4-pyrimidinediamine], in experiment [8], the “inhibition of the PCA response” value is reported as “able to inhibit the PCA response”.

Take `OCCOc1cccc(Nc2ncc(F)c(Nc3ccc4c(c3)OCCO4)n2)c1` [Compound R935154, N4-(3,4-Ethylenedioxyphenyl)-5-fluoro-N2-[3-(2-hydroxyethoxy)phenyl]-2,4-pyrimidinediamine]: the IC50 in experiment [1] (setting [9]) was 0.127 µM; in experiment [2], > 4.33 µM; in experiment [3], > 10 µM; in experiment [4] (setting [10]) it was 0.041 µM; in experiment [4] (setting [11]), 0.547 µM; in experiment [4] (setting [12]), 0.131 µM. The values for the IC50 in experiment [4] (setting [13]) and in experiment [4] (setting [14]) were 0.104 µM and 0.085 µM, respectively.

As to `CC(C)Oc1ccc(Nc2nc(Nc3cccc(OCCO)c3)ncc2F)cc1` [Compound R935156, 5-Fluoro-N2-[3-(2-hydroxyethoxy)phenyl]-N4-(4-isopropoxyphenyl)-2,4-pyrimidinediamine], the IC50 in experiment [1] (setting [9]) was 0.149 µM; in experiment [2], 4.05 µM; in experiment [3] it was > 10 µM; in experiment [4] (setting [10]), < 0.22 µM; in experiment [4] (setting [11]), 0.433 µM; in experiment [4] (setting [12]), 0.22 µM. Moreover, the IC50 in experiment [4] (setting [13]) and in experiment [4] (setting [14]) was < 0.22 µM throughout.

Take `Nc1cccc(Nc2ncc(F)c(Nc3ccc4c(c3)OCCO4)n2)c1` [Compound R950207, N2-(3-Aminophenyl)-N4-(3,4-ethylenedioxyphenyl)-5-fluoro-2,4-pyrimidinediamine]: the IC50 in experiment [1] (setting [9]) was 0.164 µM; in experiment [2], > 4.33 µM; in experiment [3], > 10 µM; in experiment [4] (setting [10]), < 0.22 µM; in experiment [4] (setting [11]), 0.288 µM; in experiment [4] (setting [12]), < 0.22 µM. The IC50 in experiment [4] (setting [13]) and in experiment [4] (setting [14]) was < 0.22 µM throughout.

For the molecule `O=C(O)c1cc(=O)c2c(OCC(O)COc3cccc4oc(C(=O)O)cc(=O)c34)cccc2o1` [Cromolyn, reference compound], the “ovalbumin-induced airway hyperresponsiveness and inflammation” value in experiment [5] (model validation, data not shown) was “able to block the ovalbumin-induced airway hyperresponsiveness and inflammation”.

Turning to `CCCC1O[C@@H]2C[C@H]3[C@@H]4CCC5=CC(=O)C=C[C@]5(C)[C@H]4[C@@H](O)C[C@]3(C)[C@]2(C(=O)CO)O1` (stereo partly shown) [budesonide, reference compound], the methacoline-induced bronchocontriction result in experiment [5] (model validation) is “inhibitory effect”.

For `C[C@@H]1C[C@H]2[C@@H]3CCC4=CC(=O)C=C[C@]4(C)[C@@]3(F)[C@@H](O)C[C@]2(C)[C@@]1(O)C(=O)CO` [dexamethasone, reference compound], the methacoline-induced bronchocontriction entry in experiment [5] (model validation) is reported as “inhibitory effect”.

Take `CN(C)CCOC(c1ccccc1)c1ccccc1` [diphenhydramine, reference compound]: the “inhibition of the PCA response / FcεR-mediated vascular leakage (in words)” value in experiment [8] (mouse, in vivo) was “inhibit the PCA response”.
